Reference: patent US9993570B2, “Radiolabeled tracers for poly (ADP-ribose) polymerase-1 (PARP-1), methods and uses therefor” (Washington University, priority 2014, dated 2018)

Assay: Organ biodistribution of [18F]WC-4-138 in athymic nude mice
Assay type: in vivo
Procedure: This example illustrates biodistribution of Compound 12 ([^18F]WC-4-138) in mice. Eight week old, female, athymic nude mice (Harlan) were injected via tail vein with [^18F]WC4-138. Mice were sacrificed by cervical dislocation 5 or 30 minutes after IV tracer injection of 30 μCi, 1 or 2 hours after injection of 45 μCi, or 4 hours after injection of 60 μCi of [^18F]WC-4-138. The acetonitrile-soluble fractions of plasma or liver and the control parent compound were separated via reverse-phase high performance liquid chromatography (HPLC) and the radioactivity of each fraction was quantified. The percent parent compound of each sample was calculated as the portion of radioactivity associated with the HPLC fractions that contained the parent compound. Data are presented as mean±SD, n=3.
Four mice were sacrificed at each timepoint, with the exception of the 2 hour timepoint (n=3). Blood, heart, lung, muscle, liver, spleen, fat, adrenal glands, kidney, uterus, ovaries, bone, bone marrow, pancreas, stomach, small intestine, and large intestine were collected from each animal. All organs were blotted to remove excess blood, weighed, and counted in a Beckmann 6000 gamma counter. The percent injected dose per gram (% ID/g) of tissue was determined for each organ.

O=C1NCCn2c(-c3ccc(OCC[18F])cc3)nc3cccc1c32 [[^18F]12]
% ID/g, Adrenals (5 min after IV injection): 11.80 +/− 0.46 % ID/g | % ID/g, Blood (5 min after IV injection): 1.60 +/− 0.21 % ID/g | % ID/g, Bone (5 min after IV injection): 3.40 +/− 0.74 % ID/g | % ID/g, Brain (5 min after IV injection): 0.55 +/− 0.16 % ID/g | % ID/g, Fat (5 min after IV injection): 1.16 +/− 0.49 % ID/g | % ID/g, Heart (5 min after IV injection): 6.57 +/− 0.45 % ID/g | % ID/g, Kidney (5 min after IV injection): 35.63 +/− 3.33 % ID/g | % ID/g, Liver (5 min after IV injection): 12.50 +/− 1.08 % ID/g | % ID/g, Lower Large Intestine (5 min after IV injection): 4.17 +/− 0.42 % ID/g | % ID/g, Lung (5 min after IV injection): 11.89 +/− 0.89 % ID/g | % ID/g, Marrow (5 min after IV injection): 0.06 +/− 0.02 % ID/g | % ID/g, Muscle (5 min after IV injection): 2.05 +/− 0.48 % ID/g | % ID/g, Ovaries (5 min after IV injection): 4.71 +/− 1.21 % ID/g | % ID/g, Pancress (5 min after IV injection): 9.67 +/− 1.98 % ID/g | % ID/g, Small Intestine (5 min after IV injection): 12.64 +/− 1.45 % ID/g | % ID/g, Spleen (5 min after IV injection): 12.47 +/− 6.69 % ID/g | % ID/g, Stomach (5 min after IV injection): 3.17 +/− 0.66 % ID/g | % ID/g, Thyroid (5 min after IV injection): 4.18 +/− 1.18 % ID/g | % ID/g, Upper Large Intestine (5 min after IV injection): 7.84 +/− 1.02 % ID/g | % ID/g, Uterus (5 min after IV injection): 3.44 +/− 2.01 % ID/g | % ID/g, Adrenals (30 min after IV injection): 5.18 +/− 0.94 % ID/g | % ID/g, Blood (30 min after IV injection): 2.07 +/− 0.16 % ID/g | % ID/g, Bone (30 min after IV injection): 4.49 +/− 0.34 % ID/g | % ID/g, Brain (30 min after IV injection): 1.03 +/− 0.11 % ID/g | % ID/g, Fat (30 min after IV injection): 1.22 +/− 0.25 % ID/g | % ID/g, Heart (30 min after IV injection): 3.44 +/− 0.30 % ID/g | % ID/g, Kidney (30 min after IV injection): 21.14 +/− 2.21 % ID/g | % ID/g, Liver (30 min after IV injection): 8.24 +/− 0.62 % ID/g | % ID/g, Lower Large Intestine (30 min after IV injection): 7.43 +/− 0.59 % ID/g | % ID/g, Lung (30 min after IV injection): 5.33 +/− 0.48 % ID/g | % ID/g, Marrow (30 min after IV injection): 0.11 +/− 0.02 % ID/g | % ID/g, Muscle (30 min after IV injection): 2.39 +/− 0.15 % ID/g | % ID/g, Ovaries (30 min after IV injection): 5.31 +/− 0.82 % ID/g | % ID/g, Pancress (30 min after IV injection): 10.27 +/− 1.28 % ID/g | % ID/g, Small Intestine (30 min after IV injection): 13.00 +/− 0.75 % ID/g | % ID/g, Spleen (30 min after IV injection): 26.85 +/− 3.52 % ID/g | % ID/g, Stomach (30 min after IV injection): 3.77 +/− 0.73 % ID/g | % ID/g, Thyroid (30 min after IV injection): 4.03 +/− 0.28 % ID/g | % ID/g, Upper Large Intestine (30 min after IV injection): 14.07 +/− 1.72 % ID/g | % ID/g, Uterus (30 min after IV injection): 4.53 +/− 1.45 % ID/g | % ID/g, Adrenals (60 min after IV injection): 3.51 +/− 1.08 % ID/g | % ID/g, Blood (60 min after IV injection): 2.30 +/− 0.28 % ID/g | % ID/g, Bone (60 min after IV injection): 5.21 +/− 0.40 % ID/g | % ID/g, Brain (60 min after IV injection): 1.24 +/− 0.13 % ID/g | % ID/g, Fat (60 min after IV injection): 1.16 +/− 0.45 % ID/g | % ID/g, Heart (60 min after IV injection): 2.88 +/− 0.23 % ID/g | % ID/g, Kidney (60 min after IV injection): 14.02 +/− 1.84 % ID/g | % ID/g, Liver (60 min after IV injection): 6.50 +/− 0.52 % ID/g | % ID/g, Lower Large Intestine (60 min after IV injection): 10.53 +/− 1.45 % ID/g | % ID/g, Lung (60 min after IV injection): 3.99 +/− 0.29 % ID/g | % ID/g, Marrow (60 min after IV injection): 0.13 +/− 0.04 % ID/g | % ID/g, Muscle (60 min after IV injection): 2.21 +/− 0.31 % ID/g | % ID/g, Ovaries (60 min after IV injection): 4.75 +/− 0.36 % ID/g | % ID/g, Pancress (60 min after IV injection): 9.18 +/− 1.37 % ID/g | % ID/g, Small Intestine (60 min after IV injection): 8.85 +/− 1.49 % ID/g | % ID/g, Spleen (60 min after IV injection): 25.75 +/− 1.95 % ID/g | % ID/g, Stomach (60 min after IV injection): 3.62 +/− 0.37 % ID/g | % ID/g, Thyroid (60 min after IV injection): 3.32 +/− 0.19 % ID/g | % ID/g, Upper Large Intestine (60 min after IV injection): 15.62 +/− 2.31 % ID/g | % ID/g, Uterus (60 min after IV injection): 5.51 +/− 0.79 % ID/g | % ID/g, Adrenals (120 min after IV injection): 2.69 +/− 0.44 % ID/g | % ID/g, Blood (120 min after IV injection): 2.54 +/− 0.13 % ID/g | % ID/g, Bone (120 min after IV injection): 6.56 +/− 0.80 % ID/g | % ID/g, Brain (120 min after IV injection): 1.58 +/− 0.19 % ID/g | % ID/g, Fat (120 min after IV injection): 1.07 +/− 0.11 % ID/g | % ID/g, Heart (120 min after IV injection): 2.68 +/− 0.09 % ID/g | % ID/g, Kidney (120 min after IV injection): 8.77 +/− 0.72 % ID/g | % ID/g, Liver (120 min after IV injection): 4.58 +/− 0.29 % ID/g | % ID/g, Lower Large Intestine (120 min after IV injection): 13.35 +/− 0.87 % ID/g | % ID/g, Lung (120 min after IV injection): 3.17 +/− 0.28 % ID/g | % ID/g, Marrow (120 min after IV injection): 0.07 +/− 0.01 % ID/g | % ID/g, Muscle (120 min after IV injection): 2.07 +/− 0.11 % ID/g | % ID/g, Ovaries (120 min after IV injection): 4.25 +/− 0.52 % ID/g | % ID/g, Pancress (120 min after IV injection): 5.37 +/− 0.64 % ID/g | % ID/g, Small Intestine (120 min after IV injection): 6.62 +/− 0.75 % ID/g | % ID/g, Spleen (120 min after IV injection): 17.19 +/− 1.08 % ID/g | % ID/g, Stomach (120 min after IV injection): 2.56 +/− 0.27 % ID/g | % ID/g, Thyroid (120 min after IV injection): 3.46 +/− 0.10 % ID/g | % ID/g, Upper Large Intestine (120 min after IV injection): 10.28 +/− 0.65 % ID/g | % ID/g, Uterus (120 min after IV injection): 4.13 +/− 0.20 % ID/g | % ID/g, Adrenals (240 min after IV injection): 1.74 +/− 0.34 % ID/g | % ID/g, Blood (240 min after IV injection): 1.61 +/− 0.05 % ID/g | % ID/g, Bone (240 min after IV injection): 9.29 +/− 1.17 % ID/g | % ID/g, Brain (240 min after IV injection): 1.17 +/− 0.05 % ID/g | % ID/g, Fat (240 min after IV injection): 0.62 +/− 0.44 % ID/g | % ID/g, Heart (240 min after IV injection): 1.67 +/− 0.06 % ID/g | % ID/g, Kidney (240 min after IV injection): 3.67 +/− 0.54 % ID/g | % ID/g, Liver (240 min after IV injection): 2.43 +/− 0.25 % ID/g | % ID/g, Lower Large Intestine (240 min after IV injection): 7.17 +/− 0.50 % ID/g | % ID/g, Lung (240 min after IV injection): 2.03 +/− 0.43 % ID/g | % ID/g, Marrow (240 min after IV injection): 0.04 +/− 0.01 % ID/g | % ID/g, Muscle (240 min after IV injection): 1.35 +/− 0.09 % ID/g | % ID/g, Ovaries (240 min after IV injection): 2.00 +/− 0.41 % ID/g | % ID/g, Pancress (240 min after IV injection): 2.75 +/− 0.44 % ID/g | % ID/g, Small Intestine (240 min after IV injection): 3.04 +/− 0.25 % ID/g | % ID/g, Spleen (240 min after IV injection): 9.80 +/− 1.01 % ID/g | % ID/g, Stomach (240 min after IV injection): 1.20 +/− 0.08 % ID/g | % ID/g, Thyroid (240 min after IV injection): 3.23 +/− 0.49 % ID/g | % ID/g, Upper Large Intestine (240 min after IV injection): 4.33 +/− 0.57 % ID/g | % ID/g, Uterus (240 min after IV injection): 2.05 +/− 0.31 % ID/g
